We go through five substances from patent US20100016225A1, “CONJUGATES COMPRISED OF POLYMER AND HIV gp-41-DERIVED PEPTIDES AND THEIR USE IN THERAPY” (Trimeris, Inc., priority 2002, published 2010).

Data set [1] deals with HIV-1 strain IIIB. Description: In vitro infectivity assay, HIV-1 strain IIIB (Table 5). The class given is cell-based. The text has this: (§1) Illustrated in this example is the unexpected result of antiviral potency using the conjugates according to the present invention. […] In determining antiviral activity (e.g., one measure being the ability to inhibit transmission of HIV to a target cell) of the conjugates according to the present invention, used was an in vitro assay which has been shown, by data generated using synthetic peptides derived from either of the HR regions of HIV gp41, to be predictive of antiviral activity observed in vivo.
(§2) The infectivity assays score for reduction of infectious virus titer employing the indicator cell lines MAGI or the CCR5 expressing derivative cMAGI. Both cell lines exploit the ability of HIV-1 that to transactivate the expression of a β-galactosidase reporter gene driven by the HIV-LTR. The β-gal reporter has been modified to localize in the nucleus and can be detected with the X-gal substrate as intense nuclear staining within a few days of infection. The number of stained nuclei can thus be interpreted as equal to the number of infectious virions in the challenge inoculum if there is only one round of infection prior to staining. Infected cells are enumerated using a CCD-imager and both primary and laboratory adapted isolates show a linear relationship between virus input and the number of infected cells visualized by the imager. […] Peptides tested for antiviral activity were diluted into various concentrations, and tested in duplicate or triplicate against an HIV inoculum adjusted to yield approximately 1500-2000 infected cells/well of a 48 well microtiter plate. The peptide (in the respective dilution) was added to the CMAGI or MAGI cells, followed by the virus inocula; and 24 hours later, an inhibitor of infection and cell-cell fusion (e.g., T20) was added to prevent secondary rounds of HIV infection and cell-cell virus spread. The cells were cultured for 2 more days, and then fixed and stained with the X-gal substrate to detect HIV-infected cells. The number of infected cells for each control and peptide dilution was determined with the CCD-imager, and then the IC50 and IC90 were calculated (expressed in μg/ml).
(§3) Using the methods taught in Example 1 herein, additional conjugates were produced by varying the polymer, the terminus of the synthetic peptide which is operably bound to polymer, and the reactive functionality used for operably binding synthetic peptide to polymer. Two molecules of synthetic peptide (e.g. SEQ ID NO:4) were operably bound to polymer. Such conjugates were then tested for antiviral activity against HIV isolates IIIB, and HIV-1 T20S & HIV-1 T20R (see Table 2 for HIV resistant strains), with the antiviral activity (IC50) expressed in μg/ml. The results for the various conjugates (Table 5, A-Q), terminus of synthetic peptide used for operably binding polymer (Table 5, C-terminus denoted as “C”, N-terminus denoted as “N”) or if an internal lysine was used (Table 5, “Lys 18”, signifying lysine as amino acid residue 18 in the amino acid sequence of the synthetic peptide), antiviral activity (IC50) against HIV-1 strain IIIB (Table 5, “IIIB”), antiviral activity (IC50) against HIV-1 T20S (Table 5, “T20S”) and antiviral activity (IC50) against HIV-1 T20R (Table 5, “T20R”), are illustrated in Table 5.

Data set [2] deals with HIV-1 T20R. The data set is classed as cell-based. As to conditions: for T20R (antiviral activity, IC50): HIV-1 T20R, Table 5. The text has this:
(§4) The infectivity assays score for reduction of infectious virus titer employing the indicator cell lines MAGI or the CCR5 expressing derivative cMAGI. Both cell lines exploit the ability of HIV-1 that to transactivate the expression of a β-galactosidase reporter gene driven by the HIV-LTR. The β-gal reporter has been modified to localize in the nucleus and can be detected with the X-gal substrate as intense nuclear staining within a few days of infection. The number of stained nuclei can thus be interpreted as equal to the number of infectious virions in the challenge inoculum if there is only one round of infection prior to staining. […] The peptide (in the respective dilution) was added to the CMAGI or MAGI cells, followed by the virus inocula; and 24 hours later, an inhibitor of infection and cell-cell fusion (e.g., T20) was added to prevent secondary rounds of HIV infection and cell-cell virus spread. The cells were cultured for 2 more days, and then fixed and stained with the X-gal substrate to detect HIV-infected cells. The number of infected cells for each control and peptide dilution was determined with the CCD-imager, and then the IC50 and IC90 were calculated (expressed in μg/ml).
In this first example of antiviral potency, two clinical isolates of HIV were obtained from the same HIV-infected individual.
Using the methods taught in Example 1 herein, additional conjugates were produced by varying the polymer, the terminus of the synthetic peptide which is operably bound to polymer, and the reactive functionality used for operably binding synthetic peptide to polymer. Two molecules of synthetic peptide (e.g. SEQ ID NO:4) were operably bound to polymer.

The test system of data set [3] is HIV-1 T20S. The data set is classed as cell-based. Conditions: for T20S (antiviral activity, IC50): HIV-1 T20S, Table 5.
Source text: as §1, §2
In this first example of antiviral potency, two clinical isolates of HIV were obtained from the same HIV-infected individual. A first isolate, hereby designated “HIV-1 T20S” for ease of description, was sensitive to the antiviral effect of T20 (SEQ ID NO:4) both in vitro and in vivo. […] The results, with the IC50 expressed in ng/ml, are illustrated in Table 2.
as §3

The test system of data set [4] is HIV. Conditions: cited from earlier work.
In data set [5] the test system is HIV-1 T20R-B. The data set is classed as cell-based. As to conditions: virus HIV-1 T20R-B.
Source text: as §4

Data set [6] deals with IIIB/CEM4. The class given is cell-based, HIV. Conditions: virus IIIB/CEM4.
Source text: as §1, §2
(§5) With reference to Table 4, IC50 and IC90 are expressed in μg/ml.

Data set [7] concerns 3′GIV/CEM4. The class given is cell-based, HIV. As to conditions: virus 3′GIV/CEM4.
Source text: as §1, §2, §5

The test system of data set [8] is SIM/CEM4. The data set is classed as cell-based, HIV. As to conditions: virus SIM/CEM4.
Source text: as §1, §2, §5

In data set [9] the test system is HIV-1 T20R-C. The data set is classed as cell-based. Conditions: virus HIV-1 T20R-C.
Source text: as §1, §2
(§6) IC50 and IC90 are expressed in μg/ml.

Data set [10] concerns HIV-1 T20R-A. The class given is cell-based. Conditions: virus HIV-1 T20R-A.
Source text: as §1, §2, §6

In data set [11] the test system is HIV-1 T20S-A. The data set is classed as cell-based. As to conditions: virus HIV-1 T20S-A.
Source text: as §1, §2, §6

Data set [12] concerns HIV-1 T20S-B. The data set is classed as cell-based. Conditions: virus HIV-1 T20S-B.
Source text: as §1, §2, §6

Data set [13] relates to HIV-1 T20R-D. The class given is cell-based. As to conditions: virus HIV-1 T20R-D.
Source text: as §1, §2, §6

Data set [14] deals with HIV-1 T20S-D. The class given is cell-based. As to conditions: virus HIV-1 T20S-D.
Source text: as §1, §2, §6

Data set [15] has as its system HIV-1 T20S-C. The class given is cell-based. Conditions: virus HIV-1 T20S-C.
Source text: as §1, §2, §6

Data set [16] can be described thus: Bioavailability (circulating half-life) in cannulated mice, plasma fluorescence HPLC. Conditions: mouse, 10 mg/kg. The data set is classed as in vivo. As to the method:
It is important to note that standard animal model for determining bioavailability has been correlated with the bioavailability of synthetic peptide in vivo in humans (as described in more detail in U.S. Pat. No. 6,258,782). […] A sample of blood was removed at predetermined time intervals (0, 15, 30 min and 1, 2, 4, 6, and 8 hours) and added to collection tubes containing anticoagulant (EDTA). Plasma was harvested from each of the collection tubes, and then subjected to analysis by fluorescence high pressure liquid chromatography (HPLC). In addition to sample dilutions, serial dilutions of dosing solution were performed in buffer as well as in plasma, and used to generate a standard curve relating peak area to known concentration of peptide. This curve was then used to calculate concentration of peptide in plasma taking into account all dilutions performed and quantity injected onto column.

Read-outs that look alike come from different tables or passages of the source.

Regarding “Conjugate N: two molecules of SEQ ID NO:4 bound via N-terminus to PEG 10”, the “IIIB (antiviral activity, IC50)” value in [1] is “.039 µg/mL”. Moreover, the “T20R (antiviral activity, IC50)” value in data set [2] is “.023 µg/mL”. In addition, the “T20S (antiviral activity, IC50)” value in data set [3] was “.017 µg/mL”.

Regarding “Conjugate Q: two molecules of SEQ ID NO:4 bound via internal lysine (Lys18) to PEG 6”, the “IIIB (antiviral activity, IC50)” value in data set [1] is “.057 µg/mL”. Besides, in data set [2], the “T20R (antiviral activity, IC50)” value is “.120 µg/mL”. Also, in [3], the “T20S (antiviral activity, IC50)” value was “.055 µg/mL”.

Consider “LTWQEWDREINNYTSLIYSLIEESQNQQEENEQELL [synthetic peptide alone]”, for which the “IIIB (antiviral activity, IC50)” value in [1] is “.007 µg/mL”. The “T20R (antiviral activity, IC50)” value in [2] worked out at 1.2 µg/mL. Moreover, the “T20S (antiviral activity, IC50)” value in data set [3] was “.010 µg/mL”.

Regarding “NNLLRAIEAQQHLLQLTVWGIKQLQARILAVERYLKDQ [DP107]”, the “50% effective concentration values (EC50), blocked infection of T cells” value in [4] (Lawless et al., 1996) was 1 µg/mL.

As for enfuvirtide, the “50% effective concentration values (EC50), blocked infection of T cells” value in data set [4] (typical range in words) is reported as “in the ng/ml range”. For the same substance, the half-inhibitory concentration (IC50) (in general, the concentration needed to halve the response being measured) in [5] is 1.898 µg/mL; in [6], 0.007 µg/mL; in [7] it was 0.008 µg/mL; in data set [8], 0.584 µg/mL; in data set [9], 1.544 µg/mL; in data set [10], more than 5 µg/mL. In addition, the IC50 in [11] was found to be 0.006 µg/mL; in data set [12], 0.029 µg/mL; in data set [13], 2.039 µg/mL; in data set [14], 0.018 µg/mL; in [15], 0.006 µg/mL. The IC90 (as a rule, the concentration needed for an effect of 90%) in data set [5] is 7.179 µg/mL; in data set [6], 0.052 µg/mL; in data set [7], 0.050 µg/mL; in [8], 3.398 µg/mL; in [9], 6.285 µg/mL; in [10], more than 5 µg/mL. Further, the IC90 in [11] is 0.078 µg/mL; in data set [12], 0.117 µg/mL; in data set [13], more than 5 µg/mL; in [14], 0.208 µg/mL; in data set [15] it was 0.073 µg/mL. Moreover, the half-life in data set [16] (cannulated mice, intravenous, read-out: t½ (converted)) was 1.6 h. Further, the exposure (AUC) (in general, concentration integrated over time) in data set [16] (iv) was determined as 158 µg·h/mL. Besides, in data set [2] (T20-resistant clinical isolate, Table 2), the “HIV-1 T20R: IC50” value was 1,211 ng/ml. In addition, the “HIV-1 T20S: IC50” value in data set [3] (T20-sensitive clinical isolate, Table 2) was 0.01 µg/mL.
